Source: patent publication US20210260101A1, “POTENTIATED ANTIBIOTIC COMPOSITIONS AND METHODS OF USE FOR TREATING BACTERIAL INFECTIONS AND BIOFILMS” (priority 2018, published 2021)
“Also recorded” adds a separate entry of the source.

Experiments:
[1] = system: P. aeruginosa BAA-47 cells; assay: NPN accumulation assay; type: cell-based, Pseudomonas aeruginosa; conditions: 64 μg/mL polymyxin-B; 64 and 128 μg/mL BPEI600; ~6×10^9 CFU/ml
Experimental: Overnight culture of P. aeruginosa BAA-47 was used to inoculate fresh CAMHB media for another 5 hr at 35° C. with shaking. Bacterial cells were collected by centrifugation at 6000 rpm for 40 min and resuspended in PBS. The OD600 of the cell suspension was adjusted to ˜1.0 and kept at room temperature during the experiment. Aliquots (180 μL/well) of the cell suspension were transferred to a 96-well flat-bottom black plate in the format of column 1, PBS blank; column 2, untreated control cells BAA-47; column 3, cells BAA-47+BPEI (sub-lethal concentration). Five technical replicates of each group were conducted. Fluorescent probes Hoechst 33342 bisbenzimide (H33342) or 1-N-phenylnaphthylamine (NPN) was added (20 μL) to each well with a final concentration of 5 μM. Fluorescence was read immediately after the addition of H33342 or NPN by a Tecan Infinite M20 plate reader with the excitation and emission filters of 355 and 460 nm for H33342 or 350 and 420 nm for NPN, respectively. Fluorescence data were normalized to the emission before cells were added in the PBS control, and they were plotted against time to show the cellular uptake of H33342 or NPN over 10 min.

[2] = system: P. aeruginosa BAA-47 cells; assay: Resazurin cell viability assay; type: cell-based, Pseudomonas aeruginosa; conditions: 64 μg/mL
Experimental: All fluorescence studies used a cell density of ˜6×10^9 CFU/mL, while checkerboard assays only inoculated a cell density of 5×10^5 CFU/mL. Therefore, an amount of 128 μg/mL BPEI for fluorescence assays is considered sub-lethal, which is tested and confirmed by resazurin assays. The reduction of resazurin to resorufin occurs via cellular metabolism and thus is an excellent reporter of cell viability. […] First, the cells in the fluorescence assays are viable and thus drug influx and efflux processes control the intracellular concentration rather than widespread disruption of outer membrane that leads to cell lysis.

MRSA OU6 biofilms = assay: Biofilm disrupting assay (crystal violet), MRSA OU6; type: cell-based, Staphylococcus aureus; conditions: 64 and 128 μg/mL, 20 hr
Experimental: This experiment was conducted in parallel with polymyxin B (PmB, a cationic polypeptide antibiotic) and BPEI600. In short, an overnight MRSA OU 6 culture was inoculated in a tissue-culture treated 96-well plate (100 μL of tryptic soy broth or TSB/well) with an inoculation size of 1 μL/well (˜5×10^5 CFU/mL). The plate was incubated at 35° C. for 24 hr to allow the bacteria to form biofilm. It was then washed with water to remove planktonic bacteria and stained with 100 μL of crystal violet solution (0.1%) per well for 15 min. The stained plate was washed excessively with water 5 times to remove any unbound stain and air-dried overnight. […] A negative control (water only) and positive control (30% acetic acid) were also conducted at the same time of treatment. After 20 hr, without touching the biofilm layer in the bottom of the plate, solubilized solution in each treated well was carefully transferred to a new 96-well plate for an OD550 measurement, which represents the corresponding amount of biofilm disrupted by each treatment.

polymyxin B
fold increase in NPN fluorescence intensity [1]: 2.7 fold | cell viability (resazurin) [2]: near background levels; also recorded: lethal | biofilm dispersal (crystal violet) (MRSA OU6 biofilms): slight dissolution in biomass
